Experimental data: PubChem BioAssay (NCI)
Structures can show the parent of a compound that is named as a salt.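 Following 48 hours of exposure in 96-well plates, responses at five concentrations were used to interpolate endpoints linearly. The concentration for 50% growth inhibition is given as GI50. TGI marks complete inhibition of growth.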 Where a SMILES comes first, the peptide text is derived from it. The star is where a group is joined. Tfa = O=C(C(F)(F)F)*

How the values were obtained:
Assay in all cases: DTP human tumour cell line panel, 48 h
PC-3 prostate = system: PC-3 prostate
MCF7 breast = system: MCF7 breast
OVCAR-8 ovarian = system: OVCAR-8 ovarian
MALME-3M melanoma = system: MALME-3M melanoma
NCI-H460 lung = system: NCI-H460 lung
MOLT-4 leukemia = system: MOLT-4 leukemia
MDA-MB-435 = system: MDA-MB-435
SR leukemia = system: SR leukemia
HOP-62 NSCLC = system: HOP-62 NSCLC
SK-MEL-28 melanoma = system: SK-MEL-28 melanoma

| SMILES | TGI (PC-3 prostate) | TGI (MCF7 breast) | TGI (OVCAR-8 ovarian) | TGI (MALME-3M melanoma) | TGI (NCI-H460 lung) | TGI (MOLT-4 leukemia) | TGI (MDA-MB-435) | TGI (SR leukemia) | TGI (HOP-62 NSCLC) | TGI (SK-MEL-28 melanoma) | GI50 (PC-3 prostate) | GI50 (MCF7 breast) | GI50 (OVCAR-8 ovarian) | GI50 (NCI-H460 lung) | GI50 (SK-MEL-28 melanoma) | GI50 (MOLT-4 leukemia) | GI50 (MDA-MB-435) | GI50 (SR leukemia) | GI50 (HOP-62 NSCLC) |
| --- | --- | --- | --- | --- | --- | --- | --- | --- | --- | --- | --- | --- | --- | --- | --- | --- | --- | --- | --- |
| Cc1cc(N(CCC#N)CCC#N)ccc1/C(N=Nc1ccc(Cl)cc1)=N\NC(=O)c1cc(Cl)ccc1O | > 100 µM | > 100 µM | > 100 µM | > 100 µM | > 100 µM | > 100 µM | > 100 µM | > 100 µM | 56.6 µM |  |  |  |  |  |  |  |  |  |  |
| Cc1c(C#N)c2nnn(-c3ccc(Cl)cc3)c(=O)n2c1-c1ccccc1 | 9.12 µM | 19.5 µM | 11.2 µM | 34.4 µM | 3.71 µM | 42.3 µM | 0.154 µM | > 56.6 µM | 3.73 µM | > 51.7 µM |  |  |  |  |  |  |  |  |  |
| NNC(=O)CSc1nc2ccc(I)cc2c(=O)n1Cc1ccccc1 | 69.3 µM | 59.4 µM | > 100 µM |  | 44.7 µM | 45.3 µM | > 100 µM | 61.2 µM | 43.9 µM | 80.5 µM |  |  |  |  |  |  |  |  |  |
| Nc1sc2c(c1C(=O)c1ccc(Cl)c(Cl)c1)CCCC2 | > 100 µM | 64.8 µM | > 100 µM | > 100 µM | > 100 µM | > 100 µM | > 100 µM | > 100 µM | > 100 µM | > 100 µM |  |  |  |  |  |  |  |  |  |
| O=C(O)CC(NC(=O)C(F)(F)F)C(=O)NC(Cc1ccc(O)cc1)C(=O)O (stereo not drawn) (Tfa-Asp-Tyr-OH; configuration not given here) | > 50 µM | > 50 µM | > 50 µM | > 50 µM | > 50 µM | > 50 µM | > 50 µM | > 50 µM | > 50 µM | > 50 µM |  |  |  |  |  |  |  |  |  |
| CN(C)C(Cc1cnc[nH]1)C(=O)N1CCCC1C(N)=O (configuration not stated) | > 100 µM | > 100 µM | > 100 µM | > 100 µM | > 100 µM | > 100 µM | > 100 µM | > 100 µM | > 100 µM | > 100 µM |  |  |  |  |  |  |  |  |  |
| Brc1ccc2[nH]cc(-c3csc(-c4ccccn4)n3)c2c1 | 51.7 µM | > 100 µM | > 100 µM | 65.2 µM | 22.4 µM | > 53.6 µM | > 100 µM | 43.6 µM | > 45.5 µM | > 100 µM |  |  |  |  |  |  |  |  |  |
| O=c1sc2c(s1)SSSSS2 | > 50 µM | > 50 µM | > 50 µM | > 50 µM | > 50 µM | 42.3 µM | > 50 µM | > 50 µM | > 50 µM | > 50 µM |  |  |  |  |  |  |  |  |  |
| O=C(CN1CCN(Cc2ccccc2)CC1)c1ccc2[nH]c(=O)oc2c1 | > 100 µM | > 100 µM | > 100 µM | 51.2 µM | > 100 µM | > 100 µM | > 100 µM | > 100 µM | > 100 µM | > 100 µM |  |  |  |  |  |  |  |  |  |
| Nc1cc2c3c(c1)Oc1cc(N)cc4c1C3c1c(cc(N)cc1O4)O2 | 98.3 µM | > 60 µM | 34 µM | 22.8 µM | > 100 µM | > 100 µM | > 86.9 µM | 50 µM | > 88.1 µM | > 100 µM |  |  |  |  |  |  |  |  |  |
| O=P1(O)C=CC2(CCCC2)O1 | > 100 µM | > 100 µM | > 100 µM | > 100 µM | > 100 µM |  | > 100 µM | > 100 µM | > 100 µM | > 100 µM |  |  |  |  |  |  |  |  |  |
| Cc1ccc2c3c1O[C@H]1c4[nH]c5ccccc5c4C[C@@]4(O)[C@@H](C2)N(C)CC[C@]314 | 33.6 µM | 30 µM | 34.8 µM | 29.3 µM |  | 36.7 µM | 28.3 µM | 41.9 µM |  |  |  |  |  |  |  |  |  |  |  |
| CC(=O)Nc1ccc(Nc2cc(=O)[nH]c(=O)[nH]2)cc1 | > 100 µM | > 100 µM | > 100 µM | > 100 µM | > 100 µM | 37.4 µM | > 100 µM | > 100 µM | > 100 µM | > 100 µM |  |  |  |  |  |  |  |  |  |
| CCCCCC(C)(C)CCC(=O)OC1OC(COC2OC(COC3OC(CO)C(O)C(O)C3O)C(O)C(O)C2O)C(O)C(O)C1O (configuration not stated) | > 100 µM | > 100 µM | > 100 µM | > 100 µM | > 100 µM | > 100 µM | > 100 µM | > 100 µM | > 100 µM |  |  |  |  |  |  |  |  |  |  |
| COc1cc2c(/C=C3/C(=O)N(C)c4ccccc43)c(Cl)[nH]c2cc1C | 13 µM | > 23.5 µM | 3.77 µM |  | 1.36 µM | 11.8 µM | 0.038 µM | 10.2 µM | 3.56 µM | > 100 µM |  |  |  |  |  |  |  |  |  |
| O=C(Nc1cccc(-n2ccc3c(NC(=O)c4ccccc4)nccc32)c1)c1ccc(N2CCOCC2)c(C(F)(F)F)c1 | > 100 µM | > 73.5 µM | > 100 µM |  | 26.9 µM | > 100 µM | 0.046 µM | > 100 µM | > 94.7 µM | > 100 µM | 0.0538 µM | 0.0397 µM | 0.055 µM | 0.037 µM | 0.0436 µM | 0.128 µM | 0.0191 µM | 0.045 µM | 0.0536 µM |
| CCOC(=O)CN1C(=O)c2c(c(C)n(-c3ccccc3)c2C)C1=O | > 100 µM | > 100 µM | > 100 µM | > 100 µM | > 100 µM | > 100 µM | > 100 µM | > 100 µM | > 100 µM | > 100 µM |  |  |  |  |  |  |  |  |  |
| N#Cc1c(N2CCCC2)nsc1NCc1ccccc1 | > 100 µM | > 100 µM | > 100 µM | > 100 µM | > 100 µM | > 100 µM | > 100 µM | > 100 µM | > 100 µM | > 100 µM |  |  |  |  |  |  |  |  |  |
| NC(=O)c1nnc2ccc(F)cc2c1N | > 100 µM | > 100 µM | > 100 µM | > 100 µM | > 100 µM | > 100 µM | > 100 µM | > 100 µM | > 100 µM |  |  |  |  |  |  |  |  |  |  |
| COC(=O)c1c2c(cc3c1CC1(Cc4cc5c(c(C=O)c4C1)CCCC5)C3)CCCC2 (configuration not stated) | > 100 µM | 87.2 µM | > 100 µM | > 100 µM |  | > 100 µM | > 100 µM | > 100 µM | > 100 µM |  |  |  |  |  |  |  |  |  |  |
